# According to patent EP4725957A1, “GROUP OF CYCLIC ALKALINE LIPOPEPTIDE COMPOUNDS, AND PREPARATION METHOD THEREFOR AND USE THEREOF” (Institute of Medicinal Biotechnology, Chinese Academy of …, priority 2023, dated 2024):
# Bridge positions count the residues as written; N and C are the ends. Square brackets hold non-standard residues; d marks the D form. Peptide text beside a SMILES is read from it. * marks the point of attachment. Heptanoyl(6-Me) = CC(C)CCCCC(=O)*; Dab = NCC[C@H](N)C(=O)O; Dap = NC[C@H](N)C(=O)O
# Assays:
# Type in all cases: cell-based
# [1] = test system: Escherichia coli ATCC BAA-2340 (KPC); details: Escherichia coli ATCC BAA-2340 (KPC)
# In short: (§1)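 Minimal inhibitory concentrations are measured following CLSI microdilution guidance in MH broth. Test concentrations run from 64 down to 0.03 mg/L in doubling steps, with a final bacterial load of (2-4) × 10^5 CFU/mL and 16-20 h incubation at 35-37°C.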
# [2] = test system: Klebsiella pneumoniae KPN+19-15; details: Klebsiella pneumoniae KPN 19-15
# In short: as §1
# [3] = test system: Pseudomonas aeruginosa ATCC 27853; details: Pseudomonas aeruginosa ATCC27853
# In short: as §1
# [4] = Nephrotoxicity assay: in vitro cytotoxicity of HK-2 cells by CCK-8 assay; details: human, HK-2 cells (human renal), 72 h incubation with drug-containing medium
# In short: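 HK-2 human renal cells in RPMI-1640 with 10% FBS were exposed to compounds at final 12.5–500 µg/mL for 72 h, then CCK-8 for 3 h and OD450 read. Viability was normalised to drug-free wells; IC50 came from logarithmic regression over three repeats, with polymyxin B as positive drug.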
structure (smiles),measurement,setting,value
"CC(C)CCCCC(=O)N[C@@H](CCN)C(=O)N[C@H](C(=O)N[C@@H](CN)C(=O)N[C@H]1CCNC(=O)[C@H]([C@@H](C)O)NC(=O)[C@H](CCN)NC(=O)[C@H](CCN)NC(=O)[C@H]([C@@H](C)O)NC(=O)[C@@H](Cc2ccccc2)NC(=O)[C@H](CCN)NC1=O)[C@@H](C)O [Compound 7, 6-methylheptanoyl-Dab-Thr-Dap-ring(4-10)[Dab-Dab-D-Phe-Thr-Dab-Dab-Thr]] ({Heptanoyl(6-Me)}-[Dab]T[Dap][Dab][Dab][dF]T[Dab][Dab]T; lactam 4-C)",MIC,[1],≤0.03 µg/mL
same,MIC,[2],≤0.03 µg/mL
same,MIC,[3],≤0.03 µg/mL
same,IC50 at 72 h,[4],> 500 µg/mL
